Several values for one entry are separate records, joined by “and”; a condition that tells them apart may be missing. Equal entries are not always repeated.
Tested on: 755483-174-R-J1-PDC complex spheroid growth, percent test/control
Assay: Anticancer human tumor 755483-174-R-J1-PDC patient-derived rhabdomyosarcoma cell line growth inhibition [Asc]
Conditions: for viability, T/C: stronger effect = lower value
Method: Multicellular complex tumor spheroid response to apoptosis pathway targeting inhibitors Alrizomadlin, Pelcitoclax, and Dasminapant in combination with a variety of drugs and investigational agents in selected tumor cell lines
The MDM2 inhibitor alrizomadlin, the Bcl-2/Bcl-xL inhibitor pelcitoclax, and the IAPs inhibitor dasminapant were evaluated both individually and in combination with standard of care and investigational anticancer small molecules within a complex spheroid model of solid tumors. . Complex spheroids include a stromal component modeled by human endothelial cells (HUVEC) and fibroblasts modeled by human mesenchymal stem cells (MSCs). The concentration ranges selected for each drug and investigational agent were based upon clinically achievable concentrations if the clinical Cmax of the agent was known.
Compounds. The drugs and investigational agents: alrizomadlin (APG-115; NSC831270), pelcitoclax (APG-1252; NSC835773), dasminapant (APG-1387;NSC834197), TAK-243 (NSC785004), copanlisib (NSC809693), olaparib (NSC753686), talazoparib (NSC767125), cobimetinib (NSC 768068), eltanexor (KPT-8602, NSC 794443), abemaciclib (NSC 768073), sotorasib (NSC818433), adagrasib (NSC 831453), MRTX-1133 (NSC 836407), Iadademestat (ORY1001, NSC 806812), and RMC-4630 (NSC839698), were obtained from the NCI Developmental Therapeutics Program Chemical Repository. The FDA-approved anticancer drug set is available from the Developmental Therapeutics Program at https://dtp.cancer.gov/organization/dscb/obtaining/available plates.htm. […] The stock solutions were prepared in dimethyl sulfoxide (DMSO, Sigma-Aldrich, St. Louis, MO, cat. D2650) at 800-fold the tested concentration and stored at -70 degrees C prior to their use. All drugs and investigational agents were tested over a range starting from a high concentration at or near the clinical Cmax and decreasing in half-log increments. If the clinical Cmax for an agent had not been determined, the highest concentration tested was 10 microM.
The patient-derived cancer (PDC) cell lines include five colon adenocarcinomas: 186277-243-T-J2-PDC, 616215-338-R-J1-PDC, 439559-082-T-J2-PDC, 463943-066-T-J2-PDC, and 519858-162-T-J1-PDC; three pancreatic carcinomas: 323965-272-R-J2-PDC, 521955-158-R6-J3-PDC, and 521955-158-R2-J5-PDC; two uterine sarcomas: 327498-152-R-J2-PDC and 993429-296-R-J1-PDC; two rhabdomyosarcomas: 755483-174-R-J1-PDC and 772245-204-R-J1-PDC; two soft tissue sarcomas: 126254-015-R-J1-PDC and 494315-158-R-J1-PDC; two malignant fibrous histiocytomas: 317291-083-R-J1-PDC and 596521-263-R-J1-PDC; two breast carcinomas: 171881-019-R-J1-PDC and 885512-296-R-J2-PDC; and one ovarian carcinoma: 6556581-035-R-J-PDC were obtained from the NCI PDMR, (https://pdmr.cancer.gov). The established cell lines HSSY-2 synovial sarcoma (RRID:CVCL 8719), SYO-1 synovial sarcoma (RRID:CVCL_7146), MPNST malignant peripheral neural sheath tumor were obtained from the Sloan Kettering Institute. The following established cell lines were purchased from the American Type Culture Collection (ATCC, Manassas, VA), Sor the received from the NCI repository:, PANC-1 pancreatic carcinoma (CRL-1469, RRID:CVCL_0480), OVCAR-5 ovarian carcinoma (RRID:CVCL_1628), OVCAR-8 ovarian carcinoma (RRID:CVCL_1629), , MCF-7 breast carcinoma (CRL-12584, RRID:CVCL_0031), MDA-MB-231 breast carcinoma (CRL-12532, RRID:CVCL_0062), NCI-H1876 small cell lung carcinoma (CRL-5902, RRID:CVCL_1503), NCI-H510A small cell lung carcinoma (HTB-184, RRID:CVCL_1565), NCI-H1417 (CRL-5869, RRID:CVCL_1469), and NCI-H196 small cell lung carcinoma (CRL-5823, RRID:CVCL_1509). Dr. Peter Houghton (Greehey Children's Cancer Research Institute, University of Texas Health Science Center, San Antonio, TX) provided Rh-18 rhabdomyosarcoma (RRID:CVCL_1659). Pooled donor human umbilical vein endothelial cells (HUVEC, Lonza, cat. CC-2519) and human mesenchymal stem cells (hMSC, Lonza, cat. PT-2501) were purchased from Lonza (Walkersville, MD).
Cell Culture. […]

[1] = curve of first compound, second compound 0.01 µM
[2] = curve of first compound, second compound 0.0316 µM
[3] = curve of first compound, second compound 0.1 µM
[4] = curve of first compound, second compound 0.316 µM
[5] = curve of first compound, second compound 1 µM
[6] = second compound 0.01 µM, first compound 0.00949 µM
[7] = second compound 0.01 µM, first compound 0.03 µM
[8] = second compound 0.01 µM, first compound 0.0949 µM
[9] = second compound 0.01 µM, first compound 0.3 µM
[10] = second compound 0.0316 µM, first compound 0.00949 µM
[11] = second compound 0.0316 µM, first compound 0.03 µM
[12] = second compound 0.0316 µM, first compound 0.0949 µM
[13] = second compound 0.0316 µM, first compound 0.3 µM
[14] = second compound 0.1 µM, first compound 0.00949 µM
[15] = second compound 0.1 µM, first compound 0.03 µM
[16] = second compound 0.1 µM, first compound 0.0949 µM
[17] = second compound 0.1 µM, first compound 0.3 µM
[18] = second compound 0.316 µM, first compound 0.00949 µM
[19] = second compound 0.316 µM, first compound 0.03 µM
[20] = second compound 0.316 µM, first compound 0.0949 µM
[21] = second compound 0.316 µM, first compound 0.3 µM
[22] = second compound 1 µM, first compound 0.00949 µM
[23] = second compound 1 µM, first compound 0.03 µM
[24] = second compound 1 µM, first compound 0.0949 µM
[25] = second compound 1 µM, first compound 0.3 µM
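Note: spheroids exposed to compounds for seven days before readout.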

IC50 [1] [nM] | IC50 [2] [nM] | IC50 [3] [nM] | IC50 [4] [nM] | IC50 [5] [nM] | Structure (SMILES) | viability, T/C [6] [%] | viability, T/C [7] [%] | viability, T/C [8] [%] | viability, T/C [9] [%] | viability, T/C [10] [%] | viability, T/C [11] [%] | viability, T/C [12] [%] | viability, T/C [13] [%] | viability, T/C [14] [%] | viability, T/C [15] [%] | viability, T/C [16] [%] | viability, T/C [17] [%] | viability, T/C [18] [%] | viability, T/C [19] [%] | viability, T/C [20] [%] | further results
103 | < 9.49 | < 9.49 | < 9.49 | < 9.49 | Cc1nc(N2CCC3(CC2)COC(C)C3N)c(CO)nc1Sc1ccnc(N)c1Cl (configuration not stated) + CNC(C)C(=O)NC1CN(S(=O)(=O)c2cccc(S(=O)(=O)N3CCC4CCC(C(=O)NC(c5ccccc5)c5ccccc5)N4C(=O)C(NC(=O)C(C)NC)C3)c2)CCC2CCC(C(=O)NC(c3ccccc3)c3ccccc3)N2C1=O | 46.1 | 57.3 | 50.5 | 35.6 | 41.4 | 45.6 | 40.8 | 32.7 | 26.6 | 45.9 | 20.3 | 29.9 | 50.1 | 32 | 22.1 | viability, T/C (second compound 0.01 µM, first compound 0.949 µM): 23%; viability, T/C (second compound 0.01 µM, first compound 3 µM): 24.7%; viability, T/C (second compound 0.0316 µM, first compound 0.949 µM): 23.2%; viability, T/C (second compound 0.0316 µM, first compound 3 µM): 18.2%; viability, T/C (second compound 0.1 µM, first compound 0.949 µM): 30.1%; viability, T/C (second compound 0.1 µM, first compound 3 µM): 18.5%; viability, T/C [21]: 24.7%; viability, T/C (second compound 0.316 µM, first compound 0.949 µM): 23.5%; viability, T/C (second compound 0.316 µM, first compound 3 µM): 11.4%; viability, T/C [22]: 17.1%; viability, T/C [23]: 16.9%; viability, T/C [24]: 21.7%; viability, T/C [25]: 24.9%; viability, T/C (second compound 1 µM, first compound 0.949 µM): 19.1%; viability, T/C (second compound 1 µM, first compound 3 µM): 12.2%
 |  |  |  |  | Cn1ncnc1[C@H]1c2n[nH]c(=O)c3cc(F)cc(c23)N[C@@H]1c1ccc(F)cc1 |  |  |  |  |  |  |  |  |  |  |  |  |  |  |  | viability, T/C (compound 0.000316 µM): 88.4% and 89% and 81.2%; viability, T/C (compound 0.001 µM): 83.4% and 79.9% and 66.1%; viability, T/C (compound 0.00316 µM): 84.2% and 86.5% and 53.9%; viability, T/C (compound 0.01 µM): 74.4% and 58.5% and 52.2%; viability, T/C (compound 0.0316 µM): 50.1% and 45.9% and 31.2%; viability, T/C (compound 0.1 µM): 41.2% and 38.3% and 23.1%; IC50 (curve of compound): 32.7 nM and 18.1 nM and 6.39 nM
2.6 | 1.67 | < 0.949 | < 0.949 | < 0.949 | NC(=O)C(=Cn1cnc(-c2cc(C(F)(F)F)cc(C(F)(F)F)c2)n1)c1cncnc1 + CNC(C)C(=O)NC1CN(S(=O)(=O)c2cccc(S(=O)(=O)N3CCC4CCC(C(=O)NC(c5ccccc5)c5ccccc5)N4C(=O)C(NC(=O)C(C)NC)C3)c2)CCC2CCC(C(=O)NC(c3ccccc3)c3ccccc3)N2C1=O | 15.2 | 5.78 | 4.79 | 3.74 | 13.5 | 6.2 | 6.42 | 22 | 7.59 | 6.43 | 4.59 | 3.8 | 22 | 4.35 | 26.3 | viability, T/C (second compound 0.01 µM, first compound 0.000949 µM): 73.8%; viability, T/C (second compound 0.01 µM, first compound 0.003 µM): 46.7%; viability, T/C (second compound 0.0316 µM, first compound 0.000949 µM): 63.4%; viability, T/C (second compound 0.0316 µM, first compound 0.003 µM): 36.2%; viability, T/C (second compound 0.1 µM, first compound 0.000949 µM): 41.2%; viability, T/C (second compound 0.1 µM, first compound 0.003 µM): 35.9%; viability, T/C (second compound 0.316 µM, first compound 0.000949 µM): 26.7%; viability, T/C (second compound 0.316 µM, first compound 0.003 µM): 21%; viability, T/C [21]: 2.93%; viability, T/C (second compound 1 µM, first compound 0.000949 µM): 28.7%; viability, T/C (second compound 1 µM, first compound 0.003 µM): 17.9%; viability, T/C [22]: 22.5%; viability, T/C [23]: 2.28%; viability, T/C [24]: 3.49%; viability, T/C [25]: 1.7%

From PubChem BioAssay AID1963434 (Molecular Pharmacology Branch, DTP, NCI, 2024)
